In assay [1] the test system is cherry tomato (Suncherry Pure). Nature of the assay: Sugar content and acidity analysis of tomato fruit juice. To be noted: 10 mM sprinkled once a week. The class given is in vivo. The method, then:
After the plants of four root clumps uniformly grew, and flower buds began to appear, water (Con.), 10 mM L-isoleucine aqueous solution (Ile), or 10 mM proline aqueous solution (Pro) was sprinkled on the whole plants once a week. The sprinkled volume was adjusted in accordance with the growth of the plants, and it was 15 to 30 mL per one root clump.
Mature tomato fruit were taken from cherry tomato plants of each experimental group in the same manner as described in iii) above, and fruit juice was pressed out from each fruit. Glucose content, fructose content, and acidity of each fruit juice extract were analyzed. Analysis of glucose and fructose was performed for a 20-fold diluted solution of fruit juice by using a food analysis reagent kit, F-Kit (Saccharose (Sucrose)/D-Glucose/D-Fructose Kit (Roche)) and DU800 Spectrophotometer (Beckman Coulter) according to the manuals of the kit and instrument. Acidity analysis was performed by using a pocket acidity meter (PAL-AC1, ATAGO).

Another assay has as its system LOX and Psy genes. The assay can be described thus: Gene expression in pepper (Anaheim) sprinkled with Ile. The class given is in vivo. The note with it: 10 mM Ile once a week, compared to Con. As to the method:
A 10 mM isoleucine aqueous solution (Ile) was sprinkled on pepper plants (variety, Anaheim), which also belong to the family Solanaceae, like tomato, and gene expression analysis was performed. The pepper plants were cultivated in a greenhouse in the same manner as described in Example 2. Ile was sprinkled once a week, and after the second sprinkling, leaves were collected from the pepper plants. RNA extraction, cDNA synthesis, and real-time PCR were performed in the same manner as described in Example 5 to analyze gene expression. Expression of the LOX gene was analyzed by using leaves collected 3 hours after the second sprinkling, and expression of the Psy gene was analyzed by using leaves collected 24 hours after the second sprinkling.

Assay [2] has as its system LOX, JAR1, PI and MYC2 genes. Nature of the assay: Investigation of isoleucine concentration for sprinkling (II): gene expression. To be noted: 50 mM Ile, 3 mL on leaf surfaces (0.01, 0.1, 50, 100 mM tested). The class given is in vivo, tomato (Caddy). As to the method:
Tomato plants (variety: Caddy, Tokita Seed) were cultivated in a biotron room in the same manner as described in Example 1. Three weeks after sowing, 3 mL of water, or a 0.01 mM, 0.1 mM, 50 mM, or 100 mM isoleucine aqueous solution (Ile) was sprinkled on leaf surfaces of each plant, sampling was performed from the second foliage leaves, and expression of LOX, JAR1, PI and MYC2 genes were analyzed in the same manner as described in Example

The subject of the next assay is tomato (Momotaro Fight). The assay can be described thus: Sprinkling of various compounds on tomato (Momotaro): first appearance, coloring and number of fruit. The class given is in vivo. The method, then: Three seeds of tomato (Momotaro Fight) were shown in compost contained in a slit pot, and cultivated in the same manner as described in Example 1, provided that the cultivation was performed in a greenhouse (daytime temperature was 25° C. (6:00 to 20:00), and night temperature was 15° C. (20:00 to 6:00)). The compost and application of fertilizer were the same or performed in the same manner as those described in Example 1. After 3 weeks, one root clump was left, and the others were thinned out. When a flower cluster of the first tier appeared, a support was put up, and after a flower cluster of the second tier appeared, pinching was performed (pinching of terminal bud). After the plants of four root clumps uniformly grew, and flower buds began to appear, water (Con.), 10 mM L-isoleucine aqueous solution (Ile), 10 mM monosodium glutamate aqueous solution (GluNa), 5 mM urea aqueous solution (Urea), or 10 mM phenylalanine aqueous solution (Phe) was sprinkled on the whole plants every two weeks. The sprinkled volume was adjusted in accordance with the growth of the plants, and it was 15 to 30 mL per one root clump. The concentration of urea was 5 mM so that nitrogen amount provided by it was the same as that provided by each of the amino acids. Then, the first appearance of fruit, ripening of fruit, and number of fruit produced were investigated for each root clump.

The next assay relates to Phelipanche aegyptiaca. To be noted: plants cultivated on an agar medium; cited from earlier work.
The next assay relates to Psy, Pds and Zds genes. The assay can be described thus: Real-time PCR of genes involved in carotenoid synthesis in leaves. The class given is in vivo, cherry tomato. To be noted: 10 mM Ile, leaves 24 hours after sprinkling. The method, then: A 10 mM isoleucine aqueous solution (Ile) or water (Con.) was sprinkled on leaf surfaces of cherry tomato plants, and RNA was isolated from the leaves 24 hours afterward. By using the isolated RNA, expression of the genes that participate in the biosynthesis of carotenoids, genes of phytoene synthase (Psy), phytoene desaturase (Pds), and ξ-carotene desaturase (Zds), were analyzed. The extraction of RNA, synthesis of cDNA, and real-time PCR analysis were conducted in the same manner as described above.
In general terms: In qPCR the cycle at which signal appears reflects the starting amount.

Assay [3] deals with middle size fruit-bearing tomato (Tsukutsuku-shi). The assay can be described thus: Ripening and harvestable bunch number of middle size fruit-bearing tomato (Tsukutsuku-shi). The class given is in vivo. The note with it: 3 mM Ile + 0.2% Squash. As to the method: For the test, middle size fruit-bearing tomato plants in the second half of their growth (variety, Tsukutsuku-shi) that were cultivated in a greenhouse and bore fruit of the 12th tier were used. Neighboring 12 root clumps of the tomato plants were selected, 6 root clumps of them were used for control group receiving no treatment, and the other 6 root clumps were used for the Ile treatment group. […] The total volume of the solution sprinkled on the plants of 6 root clumps was 600 ml. After the treatment, the change in color of tomatoes was confirmed and harvested from each bunch on 11th, […], and 27th days. When substantially all the fruit colored (ripened), or many fruit were ready to overmature, that is, when the top of the fruit was still green, the fruit were harvested. The numbers of bunches harvested on the 11th day after the treatment were 3 for the no treatment group, and 7 for the Ile treatment group. The numbers of bunches harvested on the 18th day after the treatment were 4 for the no treatment group, and 3 for the Ile treatment group.

Consider `CC[C@H](C)[C@H](N)C(=O)O` [Ile, L-isoleucine], for which the “glucose content and fructose content of the fruit, comparison of groups” value in assay [1] is “almost the same as those of the control”. In assay [1] (fruit juice of mature fruit), this compound displayed an Acidity of 0.46%, a Fructose of 13.3 g/L and a Glucose of 13.3 g/L. Also, in the assay on LOX and Psy genes (leaves 3 hours after the second sprinkling), the “Expression of the LOX gene” value was “higher”. Also, the “Expression of the Psy gene” value with LOX and Psy genes (leaves 24 hours after the second sprinkling) was “higher”. Moreover, the “Expression of the LOX, JAR1, PI and MYC2 genes” value in assay [2] is listed as “promoted”. Also, the “color of fruit obtained from flowers that bloomed on the same day” value in the assay with tomato (Momotaro Fight) (10 mM, fruit of water-sprinkled plant was green) is given as “already turned color to red”. Moreover, the “number of fruit turning color to orange or red” value in the assay on tomato (Momotaro Fight) (107th day after sowing, per four root clumps, water: 0) worked out at 4. In the assay on tomato (Momotaro Fight) (after cultivation for 3 months after sowing, per four root clumps, water: 8), the “number of harvested fruits” value was 16. Also, the “infection of Phelipanche aegyptiaca in Arabidopsis thaliana” value in the assay with Phelipanche aegyptiaca is listed as “ineffective”. In addition, in the assay on Psy, Pds and Zds genes, the “expression of Pds” value was “increased”, the “expression of Psy” value is recorded as “increased” and the “expression of Zds” value is recorded as “increased”. For the same compound, the “number of bunches harvested on the 11th day after the treatment” value in assay [3] (10 labeled bunches, no treatment group: 3) was determined as 7. Further, the “number of bunches harvested on the 27th day after the treatment” value in assay [3] (no treatment group: 3) stood at 1. Moreover, the “number of bunches harvested on the 18th day after the treatment” value in assay [3] (no treatment group: 4) stood at 3. For the same compound, the “number of immature (unripened, green) fruits among the harvested fruit of 10 bunches” value in assay [3] (no treatment group: 15 of 85) came to 8. The “total harvested fruit of 10 bunches” value in assay [3] (no treatment group: 85) was determined as 86.

The values are drawn from US10226044B2, “Agricultural and horticultural composition and method for cultivating plant” (AJINOMOTO CO., INC., priority 2014, dated 2019).
